In patent US20100058650A1, “HYDROXYMETHYLFURFURAL ETHERS FROM SUGARS OR HMF AND MIXED ALCOHOLS” (FURANIX TECHNOLOGIES B.V., priority 2007, published 2010):

Assay: Fuel solubility: miscibility of blends with commercial diesel
Type: physicochemical
Excerpt: Fuel solubility is a primary concern for diesel fuel applications. Not all highly polar oxygenates have good solubility in the current commercial diesel fuels.

CCOCc1ccc(C=O)o1 [EMF, 5-(ethoxymethyl)furfural]
Miscibility of blend with commercial diesel (5 vol % blend with commercial diesel): completely miscible | Miscibility of blend with commercial diesel (25 vol % blend with commercial diesel): phase separation occurs | Miscibility of blend with commercial diesel (40 vol % blend with commercial diesel): phase separation occurs
